Data reported in patent publication US7396849B2, “4-(Condensed cyclicmethyl)-imidazole-2-thiones acting as α2 adrenergic agonists” (Allergan, Inc., priority 2004, dated 2008).

Columns and labels:
Type in all cases: cell-based
Conditions in all cases: NIH-3T3 cells, ratio of maximal effect to that of standard full agonist brimonidine, NA = not active below 10 micromolar
[1] = target: T1, alpha2B adrenergic receptors (Homo sapiens, UniProt P18089); experiment: RSAT assay (Receptor Selection and Amplification Technology), alpha2B
T1 construct: expressed in transfected cells; host or cells: NIH-3T3 cells
T1 sequence (P18089 1-450): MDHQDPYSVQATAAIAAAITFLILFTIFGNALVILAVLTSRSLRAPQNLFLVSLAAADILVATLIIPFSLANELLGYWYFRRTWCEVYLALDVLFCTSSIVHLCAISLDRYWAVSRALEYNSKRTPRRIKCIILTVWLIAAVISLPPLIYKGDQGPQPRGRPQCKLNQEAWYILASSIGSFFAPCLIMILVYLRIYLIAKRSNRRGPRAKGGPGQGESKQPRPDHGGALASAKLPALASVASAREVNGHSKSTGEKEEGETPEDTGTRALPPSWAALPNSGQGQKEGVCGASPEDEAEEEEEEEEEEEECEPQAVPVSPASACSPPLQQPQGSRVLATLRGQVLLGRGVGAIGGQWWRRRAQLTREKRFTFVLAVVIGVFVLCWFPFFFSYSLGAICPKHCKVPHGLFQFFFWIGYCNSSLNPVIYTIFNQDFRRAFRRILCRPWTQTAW
Source text: (§1) The imidazole-2-thione compounds of the invention are agonists of alpha2 adrenergic receptors. Many compounds of the invention are specific or selective agonists of alpha2B and/or to a lesser extent alpha2C adrenergic receptors, in preference over alpha2A adrenergic receptors. […] 76, pp. 308-311 (incorporated herein by reference) and is also described below. Another reference pertinent to this assay is Conklin et al. (1993) Nature 363:274-6, Receptor Selection and Amplification Technology (RSAT) assay, also incorporated herein by reference.
(§2) The RSAT assay measures a receptor-mediated loss of contact inhibition that results in selective proliferation of receptor-containing cells in a mixed population of confluent cells. The increase in cell number is assessed with an appropriate transfected marker gene such as β-galactosidase, the activity of which can be easily measured in a 96-well format. Receptors that activate the G protein, Gq, elicit this response. Alpha2 receptors, which normally couple to Gi, activate the RSAT response when coexpressed with a hybrid Gq protein that has a Gi receptor recognition domain, called Gq/i5.
(§3) NIH-3T3 cells are plated at a density of 2×10^6 cells in 15 cm dishes and maintained in Dulbecco's modified Eagle's medium supplemented with 10% calf serum. One day later, cells are cotransfected by calcium phosphate precipitation with mammalian expression plasmids encoding p-SV-β-galactosidase (5-10 μg), receptor (1-2 μg) and G protein (1-2 μg). 40 μg salmon sperm DNA may also be included in the transfection mixture. Fresh media is added on the following day and 1-2 days later, cells are harvested and frozen in 50 assay aliquots. Cells are thawed and 100 μl added to 100 μl aliquots of various concentrations of drugs in triplicate in 96-well dishes. Incubations continue 72-96 hr at 37° C. After washing with phosphate-buffered saline, β-galactosidase enzyme activity is determined by adding 200 μl of the chromogenic substrate (consisting of 3.5 mM o-nitrophenyl-β-D-galactopyranoside and 0.5% nonidet P-40 in phosphate buffered saline), incubating overnight at 30° C. and measuring optical density at 420 nm. The absorbance is a measure of enzyme activity, which depends on cell number and reflects a receptor-mediated cell proliferation. The efficacy or intrinsic activity is calculated as a ratio of the maximal effect of the drug to the maximal effect of a standard full agonist for each receptor subtype. Brimonidine, also called UK14304, the chemical structure of which is shown below, is used as the standard agonist for the alpha2A, alpha2B and alpha2C receptors.
(§4) The results of the RSAT assay with several exemplary compounds of the invention are disclosed in Table 1 above together with the chemical formulas of these examplary compounds. NA stands for “not active” at cohcentrations less than 10 micromolar.

[2] = target: T2, alpha2A adrenergic receptors (Homo sapiens, UniProt P08913); experiment: RSAT assay (Receptor Selection and Amplification Technology), alpha2A
T2 construct: expressed in transfected cells; host or cells: NIH-3T3 cells
T2 sequence (P08913 1-465): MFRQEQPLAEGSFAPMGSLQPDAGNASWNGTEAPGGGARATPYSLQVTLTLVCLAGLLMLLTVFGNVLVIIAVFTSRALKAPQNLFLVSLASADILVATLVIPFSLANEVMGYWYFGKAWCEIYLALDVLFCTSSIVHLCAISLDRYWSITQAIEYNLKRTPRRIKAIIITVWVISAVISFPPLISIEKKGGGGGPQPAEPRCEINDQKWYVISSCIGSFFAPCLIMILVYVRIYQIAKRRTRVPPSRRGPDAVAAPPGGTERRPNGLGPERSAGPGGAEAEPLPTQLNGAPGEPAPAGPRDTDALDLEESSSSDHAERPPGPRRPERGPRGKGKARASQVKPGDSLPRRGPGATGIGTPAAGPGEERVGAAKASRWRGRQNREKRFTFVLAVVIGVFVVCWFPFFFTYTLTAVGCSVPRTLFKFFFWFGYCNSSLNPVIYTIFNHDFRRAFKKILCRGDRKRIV
Source text: as §1, §2, §3, §4

[3] = target: T3, alpha2C adrenergic receptors (Homo sapiens, UniProt P18825); experiment: RSAT assay (Receptor Selection and Amplification Technology), alpha2C
T3 construct: expressed in transfected cells; host or cells: NIH-3T3 cells
T3 sequence (P18825 1-462): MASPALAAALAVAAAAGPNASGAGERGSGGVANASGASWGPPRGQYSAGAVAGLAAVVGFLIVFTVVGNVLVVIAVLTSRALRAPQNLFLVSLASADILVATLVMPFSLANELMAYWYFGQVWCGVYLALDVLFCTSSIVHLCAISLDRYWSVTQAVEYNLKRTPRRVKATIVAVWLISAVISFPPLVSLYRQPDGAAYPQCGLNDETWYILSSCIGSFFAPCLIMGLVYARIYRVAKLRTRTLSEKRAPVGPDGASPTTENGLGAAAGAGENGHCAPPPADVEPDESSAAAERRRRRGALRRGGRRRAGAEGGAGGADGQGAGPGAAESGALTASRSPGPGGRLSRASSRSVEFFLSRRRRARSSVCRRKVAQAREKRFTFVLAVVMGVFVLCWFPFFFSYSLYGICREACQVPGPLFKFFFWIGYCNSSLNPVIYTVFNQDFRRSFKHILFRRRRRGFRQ
Source text: as §1, §2, §3, §4

Row | Compound | Intrinsic Activity Alpha 2B [1] | Intrinsic Activity Alpha 2A [2] | Intrinsic Activity Alpha 2C [3]
1 | CC(c1c[nH]c(=S)[nH]1)c1cccc2ncccc12 (single isomer, unassigned; (+)) [Compound 14, (+)-4-(1-quinolin-5-yl-ethyl)-1,3-dihydro-imidazole-2-thione] | 0.86 | – | –
2 | S=c1[nH]cc(Cc2cccc3c2OCCO3)[nH]1 [Compound 1, 4-(2,3-dihydro-benzo[1,4]dioxin-5-ylmethyl)-1,3-dihydro-imidazole-2-thione] | 0.94 | 0.44 | 0.56
3 | CC(c1c[nH]c(=S)[nH]1)c1cccc2c1OCCO2 (stereo not drawn) [Compound 2, 4-[1-(2,3-dihydro-benzo[1,4]dioxin-5-yl)-ethyl]-1,3-dihydro-imidazole-2-thione] | 1.38 | 0.45 | 0.48
4 | CC(c1c[nH]c(=S)[nH]1)c1cccc2c1OCO2 (stereo not drawn) [Compound 3, 4-(1-benzo[1,3]dioxol-4-yl-ethyl)-1,3-dihydro-imidazole-2-thione] | 0.97 | 0.56 | 0.77
5 | CC(c1c[nH]c(=S)[nH]1)c1cccc2cccnc12 (stereo not drawn) [Compound 4, 4-(1-quinolin-8-yl-ethyl)-1,3-dihydro-imidazole-2-thione] | 1.03 | 0.80 | 0.62
6 | S=c1[nH]cc(Cc2ccc3c(c2)OCO3)[nH]1 [Compound 5, 4-benzo[1,3]dioxol-5-ylmethyl-1,3-dihydro-imidazole-2-thione] | 1.05 | – | –
7 | S=c1[nH]cc(Cc2cccc3ccccc23)[nH]1 [Compound 6, 4-naphthalen-1-ylmethyl-1,3-dihydro-imidazole-2-thione] | 0.73 | 0.48 | 0.55
8 | S=c1[nH]cc(Cc2cccc3cccnc23)[nH]1 [Compound 8, 4-quinolin-8-ylmethyl-1,3-dihydro-imidazole-2-thione] | 1.01 | 0.93 | 0.75
9 | S=c1[nH]cc(Cc2cccc3ncccc23)[nH]1 [Compound 9, 4-quinolin-5-ylmethyl-1,3-dihydro-imidazole-2-thione] | 0.74 | – | –
10 | CC(c1c[nH]c(=S)[nH]1)c1cccc2ccccc12 (stereo not drawn) [Compound 10, 4-(1-naphthalen-1-yl-ethyl)-1,3-dihydro-imidazole-2-thione] | 1.21 | 0.52 | –
11 | S=c1[nH]cc(Cc2ccc3ccccc3c2)[nH]1 [Compound 11, 4-naphthalen-2-ylmethyl-1,3-dihydro-imidazole-2-thione] | 0.94 | – | –
12 | CC(c1ccc2c(c1)OCCO2)c1c[nH]c(=S)[nH]1 (stereo not drawn) [Compound 12, 4-[1-(2,3-dihydro-benzo[1,4]dioxin-6-yl)-ethyl]-1,3-dihydro-imidazole-2-thione] | 1.15 | 0.54 | –
13 | S=c1[nH]cc(Cc2ccc3c(c2)CCCS3)[nH]1 [Compound 13, 4-thiochroman-6-ylmethyl-1,3-dihydro-imidazole-2-thione] | 0.95 | – | –
14 | S=c1[nH]cc(Cc2cccc3nsnc23)[nH]1 [Compound-16, 4-benzo[1,2,5]thiadiazol-4-ylmethyl-1,3-dihydro-imidazole-2-thione] | 1.22 | – | 0.69
15 | CC(c1c[nH]c(=S)[nH]1)c1cccc2nsnc12 (stereo not drawn) [Compound-17, 4-(1-benzo[1,2,5]thiadiazol-4-yl-ethyl)-1,3-dihydro-imidazole-2-thione] | 0.98 | – | –
16 | Cc1c(C(C)c2c[nH]c(=S)[nH]2)ccc2cccnc12 (stereo not drawn) [Compound-18, 4-[1-(8-methyl-quinolin-7-yl)-ethyl]-1,3-dihydro-imidazole-2-thione] | 1.05 | 0.80 | 0.41
